What all share (conditions): 72 h
In test [1] the test system is U2OS. In words: drug sensitivity score (DSS) for viability; higher = more toxic; extreme values may be limits of the assay.
The subject of test [2] is Calu-3. Described as above.
Test [3] has as its system Caco-2. The description is as above.
Test [4] has as its system Vero E6. Described as above.
Test [5] deals with HepG2. The description is as above.
In test [6] the test system is U2OS. Briefly: relative viability EC50 (midpoint between 100% and the lowest measured viability); higher = less toxic.
Test [7] has as its system Caco-2. The test is described as above.
Test [8] concerns Vero E6. Described as above.
Test [9] has as its system HepG2. Described as above.
Test [10] relates to U2OS. Briefly: cell viability relative to DMSO; higher = less toxic.
For test [11], the system named is Calu-3. The test is described as above.
Test [12] concerns Caco-2. The test is described as above.
Test [13] deals with Vero E6. The test is described as above.
Test [14] relates to HepG2. Described as above.

Consider `CC#CC(=O)N1CCC[C@H]1c1nc(-c2ccc(C(=O)Nc3ccccn3)cc2)c2c(N)nccn12` [acalabrutinib], for which the drug sensitivity score in the test on U2OS [1] was found to be 0; in the test with Calu-3 [2], 7.3; in the test with Caco-2 [3], 0; with Vero E6 [4], 0; in the test with HepG2 [5], 0. For the same molecule, the “relative viability EC50” value in the test with U2OS [6], in the test on Caco-2 [7], in the test on Vero E6 [8] and with HepG2 [9] was greater than 10 µM in each case. Also, the cell viability – broadly, a read-out of living cells in per cent, often relative to untreated cells – in the test on U2OS [10] (1 nM) came to 99.3%; with U2OS [10] (10 nM), 95.6%; in the test on U2OS [10] (100 nM), 105%; with U2OS [10] (1000 nM) it was 95.3%; in the test on U2OS [10] (10000 nM), 102%; in the test with Calu-3 [11] (1 nM), 99.5%. In addition, the cell viability is 89.1% in the test on Calu-3 [11] (10 nM); 84.2% in the test with Calu-3 [11] (100 nM); 67.8% in the test on Calu-3 [11] (1000 nM); 65.3% in the test on Calu-3 [11] (10000 nM); 92.1% with Caco-2 [12] (1 nM); 101% in the test with Caco-2 [12] (10 nM). The cell viability with Caco-2 [12] (100 nM) turned out to be 99.4%; in the test on Caco-2 [12] (1000 nM) it was 90.5%; with Caco-2 [12] (10000 nM), 97.8%; with Vero E6 [13] (1 nM) it was 91.4%; with Vero E6 [13] (10 nM), 99.7%; in the test on Vero E6 [13] (100 nM), 93.1%. Moreover, the cell viability amounted to 96.7% with Vero E6 [13] (1000 nM); 98.2% with Vero E6 [13] (10000 nM); 95.9% with HepG2 [14] (1 nM); 96.7% in the test on HepG2 [14] (10 nM); 95% with HepG2 [14] (100 nM); 103% in the test on HepG2 [14] (1000 nM). Also, the cell viability in the test on HepG2 [14] (10000 nM) amounted to 102%.

As to `Cn1ncc(Cl)c1-c1cc(C(=O)N[C@H](CN)Cc2cccc(F)c2)sc1Cl`, the drug sensitivity score with U2OS [1] is 0; in the test with Calu-3 [2], 3.3; in the test with Caco-2 [3] it was 0; with Vero E6 [4], 0; in the test with HepG2 [5], 0. Moreover, the “relative viability EC50” value in the test with U2OS [6], in the test with Caco-2 [7], in the test with Vero E6 [8] and in the test with HepG2 [9] was greater than 10 µM throughout. The cell viability with U2OS [10] (1 nM) came out at 97.2%; in the test with U2OS [10] (10 nM) it was 95.6%; with U2OS [10] (100 nM), 97.9%; in the test on U2OS [10] (1000 nM), 94.1%; in the test on U2OS [10] (10000 nM), 89.2%; in the test on Calu-3 [11] (1 nM), 98%. In addition, the cell viability in the test with Calu-3 [11] (10 nM) came out at 97.6%; in the test with Calu-3 [11] (100 nM) it was 104%; in the test with Calu-3 [11] (1000 nM) it was 89.7%; in the test on Calu-3 [11] (10000 nM), 63.6%; in the test with Caco-2 [12] (1 nM), 83.6%; in the test with Caco-2 [12] (10 nM) it was 85.6%. In addition, the cell viability in the test on Caco-2 [12] (100 nM) stood at 95.3%; in the test on Caco-2 [12] (1000 nM), 79.7%; with Caco-2 [12] (10000 nM), 71%; with Vero E6 [13] (1 nM) it was 91.8%; in the test with Vero E6 [13] (10 nM), 101%; with Vero E6 [13] (100 nM) it was 91.5%. Besides, the cell viability with Vero E6 [13] (1000 nM) came out at 93.6%; in the test with Vero E6 [13] (10000 nM), 100%; in the test with HepG2 [14] (1 nM) it was 86.8%; with HepG2 [14] (10 nM), 101%; with HepG2 [14] (100 nM), 96.7%; with HepG2 [14] (1000 nM) it was 93.8%. The cell viability in the test on HepG2 [14] (10000 nM) worked out at 84.7%.

Consider `C#C[C@]1(O)CC[C@H]2[C@@H]3CCC4=C(CCC(=O)C4)[C@H]3CC[C@@]21C` [noretynodrel], for which the drug sensitivity score in the test on Caco-2 [3] and in the test with Vero E6 [4] was 0 in each case. In addition, the “relative viability EC50” value with Caco-2 [7] and with Vero E6 [8] was greater than 10 µM each time. In addition, the cell viability in the test with Caco-2 [12] (1 nM) came to 99.5%; in the test with Caco-2 [12] (10 nM) it was 105%; in the test on Caco-2 [12] (100 nM) it was 104%; in the test on Caco-2 [12] (1000 nM) it was 96.1%; with Caco-2 [12] (10000 nM), 99%; in the test with Vero E6 [13] (1 nM), 95.2%. Further, the cell viability with Vero E6 [13] (10 nM) amounted to 99%; with Vero E6 [13] (100 nM), 93.7%; with Vero E6 [13] (1000 nM), 95.9%; in the test with Vero E6 [13] (10000 nM), 101%.

As to `CCN1C(=O)NC(c2ccccc2)C1=O` (centres undefined) [ethotoin], the drug sensitivity score with U2OS [1], with Vero E6 [4] and in the test on HepG2 [5] was 0 each time.

`O=C(NOCCO)c1cc(CN2OCCCC2=O)c(F)c(F)c1Nc1ccc(I)cc1F`: the drug sensitivity score in the test with U2OS [1] came to 4.9; with Calu-3 [2] it was 15.9; with Caco-2 [3], 13.5; in the test on Vero E6 [4], 15; with HepG2 [5], 26.2. The cell viability in the test on U2OS [10] (1 nM) was 97.2%; in the test on U2OS [10] (10 nM), 92.9%; in the test with U2OS [10] (100 nM), 90.1%; in the test with U2OS [10] (1000 nM), 87.4%; in the test with U2OS [10] (10000 nM), 43.7%; with Calu-3 [11] (1 nM), 96%. In addition, the cell viability is 92.1% with Calu-3 [11] (10 nM); 61.7% in the test on Calu-3 [11] (100 nM); 43.4% in the test with Calu-3 [11] (1000 nM); 32.7% with Calu-3 [11] (10000 nM); 88.1% in the test on Caco-2 [12] (1 nM); 76.9% in the test with Caco-2 [12] (10 nM). Further, the cell viability in the test on Caco-2 [12] (100 nM) was 67.9%; in the test with Caco-2 [12] (10000 nM), 68.2%; in the test on Vero E6 [13] (1 nM) it was 89.3%; in the test on Vero E6 [13] (10 nM) it was 85.2%; with Vero E6 [13] (100 nM), 61.2%; in the test with Vero E6 [13] (1000 nM), 50.7%. The cell viability with Vero E6 [13] (10000 nM) was found to be 50.4%; in the test with HepG2 [14] (1 nM), 100%; with HepG2 [14] (10 nM), 70%; in the test with HepG2 [14] (100 nM), 34%; with HepG2 [14] (1000 nM), 19%; with HepG2 [14] (10000 nM), 21.6%.

The values are drawn from the supplement of paper PMC13380429.
